Reference: article PMC7349657, “Efficient Targeted Degradation via Reversible and Irreversible Covalent PROTACs” (Journal of the American Chemical Society, 2020)

Test system: Ramos cells
Test: Label-free quantitative proteomics in Ramos cells
Type: cell-based, Homo sapiens
Details: 24 h; for Difference for 50 nM, C11orf98 / Difference for 100 nM, C11orf98: protein C11orf98 (E9PRG8); for Difference for 50 nM, MAP1LC3B;MAP1LC3B2;MAP1LC3A / Difference for 100 nM, MAP1LC3B;MAP1LC3B2;MAP1LC3A: proteins MAP1LC3B;MAP1LC3B2;MAP1LC3A; for Difference for 50 nM, MED19 / Difference for 100 nM, MED19: protein MED19 (A0JLT2); for Difference for 50 nM, MIF4GD / Difference for 100 nM, MIF4GD: protein MIF4GD (A9UHW6)
Protocol: To assess their proteomic selectivity, we incubated the PROTACs at 50 or 100 nM for 24 h with Ramos cells and followed the change in protein abundance via quantitative label-free proteomics (Figure 7, Supporting Figure 6). In agreement with the Western blot analysis, BTK was efficiently degraded by all the PROTACs we tested. […] Ramos cells were incubated with each PROTAC (50 nM) or DMSO in quadruplicates for 24 h and were then subjected to label-free quantitative proteomics analysis. Each graph plots the Log2 fold-change of proteins in the treated samples compared to the DMSO controls (x-axis) vs the −log(p-value) of that comparison in a Student’s t test (y-axis). […]
supplemented with 300 mM imidazole). The His tag was cleaved by the addition of TEV protease with concomitant dialysis overnight into cleavage buffer (50 mM Tris, pH 8.0, 0.5 mM EDTA, 1 mM DTT) at 4°C. The resulting soluble protein was passed ov er Ni -NTA beads to remove the protease and purified further by gel filtration on a HiLoad_16/60_Superdex_75 (GE Healthcare) column equilibrated with 20 mM Tris, pH 8.0, 50 mM NaCl, 1 mM DTT. The pure protein was then flash-frozen in liquid nitrogen and stored at −80°C.
C57BL/6 mice were purchased from Harlan (Rehovot, Israel) and maintained in a pathogen-free facility, experiments were carried on 8-12 weeks old male mice. All exp eriments with mice were approved by the Weizmann Institute Animal Care and Use Committee.
Splenic cells from C57BL/6 mice were isolated by forcing spleen tissue through mesh into PBS containing 2% fetal calf serum and 1 mM EDTA and red blood cells were depleted by lysis buffer. Cells were cultured in 96-well U-b ottom dishes (1x10^6 cells/m L in RPMI 10% […]
nM, 10 nM, 1 nM, 0.1 nM) for 24 hours at 37° C in 5% humidified CO2 incubator. Following a 24 hours incubation, cells were stimulated with anti-IgM overnight (5 µg/mL, Sigma-Aldrich). Subsequently, cells were stained with anti-B220 (clone RA3-6B2, Biolegend) and anti-CD86 (clone GL-1, Biolegend) antibodies for 30 minutes at 4°C. Single cell suspensions were analyzed by a flow cytometer (CytoFlex, Beckman Coulter).
Cells were analyzed by intensity based, label-free mass spectrometry based proteomics.
Sample preparation: 106 Ramos cells were treated in four replicates with either compound or DMSO for 24 hours. Cells were then washed twice by centrifuge at 200 rcf, 4°C for 5 minutes, removing the supernatant and washed with ice cold PBS. Samp les were then centrifuged at 200 rcf, 4°C for 5 minutes, then supernatant was removed and samples were frozen at -80°C.
Samples were dispersed in 75 µl of 50 mM ammonium bicarbonate, and transferred to 1.8 mL glass vials. 75 µl of 10% SDS in 50 mM ammonium bicarbonate were added and the samples were heated to 96° C for 6 minutes. The samples were sonicated thoroughly in a sonication bath until the DNA was sheared as indicated by reduction in viscosity to level enabling easy pipettation. Total protein concentration was estimated using BCA as say and 30 µg from each sample was taken for the experiment. […]
to 60°C for 45 minutes. The samples were cooled to room temperature, and 1/20 volume of […]
200 mM iodoacetamide was added and the reaction was performed in the dark for 30 minutes.
At this point, 1/10 volume of 12% phosphoric acid was added, followed by 6 volume […]
of 90% methanol in 50 mM ammonium bicarbonate. The samples were loaded on S-trap Micro […]
columns (Protify), and washed 3 times with 90% methanol in 50 mM ammonium bicarbonate.
The columns were spun without washing to dry the methanol. Then, 1 µg of trypsin (Promga) […]
in 20 µl of 50 mM ammonium bicarbonate was added to each column, and they were incubated […]
at 47° C for 1. 5 hours. Then, 40 µl of 50 mM ammonium bicarbonate was added and the sample […]
was eluted and another 0. 5 µg of trypsin was added, fo llowed by overnight incubation at 37 ° C.
The columns themselves were further eluted with 40 µl 0.2% formic acid in water, followed […]

[1] = 50 nM, Log2 fold-change vs DMSO
[2] = 100 nM, Log2 fold-change vs DMSO

Compound	effect on off-targets LCK and PLK1 (50 or 100 nM)	off-targets degraded (CSK, LYN, BLK) (50 or 100 nM)	Difference for 50 nM, C11orf98 [1]	Difference for 100 nM, C11orf98 [2]	Difference for 50 nM, MAP1LC3B;MAP1LC3B2;MAP1LC3A [1]	Difference for 100 nM, MAP1LC3B;MAP1LC3B2;MAP1LC3A [2]	Difference for 50 nM, MED19 [1]	Difference for 100 nM, MED19 [2]	Difference for 50 nM, MIF4GD [1]	Difference for 100 nM, MIF4GD [2]	other results
N#CC(=CCCCCOCCOCCOCCOCCOc1cccc2c1C(=O)N(C1CCC(=O)NC1=O)C2=O)C(=O)N1CCCC(n2nc(-c3ccc(Oc4ccccc4)cc3)c3c(N)ncnc32)C1 (stereo not shown) [RC-2]	not significantly affected	degraded the known ibrutinib off-targets CSK, LYN, and BLK	-0.2599	0.08889	-0.1598	0.1213	–	–	–	–	Difference for 50 nM, ESYT2 (protein ESYT2 (A0FGR8), 50 nM, Log2 fold-change vs DMSO): 0.001137; Difference for 100 nM, ESYT2 (protein ESYT2 (A0FGR8), 100 nM, Log2 fold-change vs DMSO): -0.137; Difference for 50 nM, HAX1 (protein HAX1 (O00165), 50 nM, Log2 fold-change vs DMSO): -0.1673; Difference for 100 nM, HAX1 (protein HAX1 (O00165), 100 nM, Log2 fold-change vs DMSO): 0.4145; Difference for 50 nM, UNC119B (protein UNC119B (A6NIH7), 50 nM, Log2 fold-change vs DMSO): -0.2229; Difference for 100 nM, UNC119B (protein UNC119B (A6NIH7), 100 nM, Log2 fold-change vs DMSO): -0.06661
Nc1ncnc2c1c(-c1ccc(Oc3ccccc3)cc1)nn2C1CCCN(C(=O)C=CCCCCOCCOCCOCCOCCOc2cccc3c2C(=O)N(C2CCC(=O)NC2=O)C3=O)C1 (stereo not shown) [IR-2]	not significantly affected	degraded the known ibrutinib off-targets CSK, LYN, and BLK	-0.1649	-0.1913	-0.3401	-0.09776	-0.004671	0.772	–	–	Difference for 50 nM, POM121C (protein POM121C, 50 nM, Log2 fold-change vs DMSO): 0.7405; Difference for 100 nM, POM121C (protein POM121C, 100 nM, Log2 fold-change vs DMSO): 0.8148; Difference for 50 nM, RASA4;RASA4B (proteins RASA4;RASA4B, 50 nM, Log2 fold-change vs DMSO): 0.1914; Difference for 100 nM, RASA4;RASA4B (proteins RASA4;RASA4B, 100 nM, Log2 fold-change vs DMSO): -0.07223
Nc1ncnc2c1c(-c1ccc(Oc3ccccc3)cc1)nn2C1CCCN(C(=O)C=CCOCCOCCOCCOCCOCCOc2cccc3c2C(=O)N(C2CCC(=O)NC2=O)C3=O)C1 (stereo not shown) [IR-1]	not significantly affected	degraded the known ibrutinib off-targets CSK, LYN, and BLK	-0.4718	0.1735	0.1478	0.3122	0.1815	-0.5554	-0.2478	-0.02661	Difference for 50 nM, RGPD3;RGPD4 (proteins RGPD3;RGPD4, 50 nM, Log2 fold-change vs DMSO): 0.0493; Difference for 100 nM, RGPD3;RGPD4 (proteins RGPD3;RGPD4, 100 nM, Log2 fold-change vs DMSO): 0.2554
CC(C)(C=C(C#N)C(=O)N1CCCC(n2nc(-c3ccc(Oc4ccccc4)cc3)c3c(N)ncnc32)C1)CCCOCCOCCOCCOCCOc1cccc2c1C(=O)N(C1CCC(=O)NC1=O)C2=O (stereo not shown) [RC-3]	–	the only significant off-target of RC-3 was BLK	–	–	-0.1457	0.000999	0.1151	0.03137	–	–	activity against noncovalent off-targets CSK and LYN (50 or 100 nM): no activity; Difference for 50 nM, SAC3D1 (protein SAC3D1 (A6NKF1), 50 nM, Log2 fold-change vs DMSO): -1.386; Difference for 100 nM, SAC3D1 (protein SAC3D1 (A6NKF1), 100 nM, Log2 fold-change vs DMSO): -0.4129; Difference for 50 nM, TRAPPC13 (protein TRAPPC13 (A5PLN9), 50 nM, Log2 fold-change vs DMSO): -0.1201; Difference for 100 nM, TRAPPC13 (protein TRAPPC13 (A5PLN9), 100 nM, Log2 fold-change vs DMSO): -0.2022; Difference for 50 nM, GPR89B;GPR89A (proteins GPR89B;GPR89A, 50 nM, Log2 fold-change vs DMSO): -0.3119; Difference for 100 nM, GPR89B;GPR89A (proteins GPR89B;GPR89A, 100 nM, Log2 fold-change vs DMSO): -0.8716
Nc1ncnc2c1c(-c1ccc(Oc3ccccc3)cc1)nn2C1CCCN(C(=O)CCCCCCOCCOCCOCCOCCOc2cccc3c2C(=O)N(C2CCC(=O)NC2=O)C3=O)C1 (stereo not shown) [NC-1]	not significantly affected	degraded the known ibrutinib off-targets CSK, LYN, and BLK	–	–	-0.1034	0.1967	–	–	0.1494	0.1711	BTK degradation (proteomics) (50 or 100 nM): highest degradation potency against BTK; Difference for 50 nM, NUDT19 (protein NUDT19 (A8MXV4), 50 nM, Log2 fold-change vs DMSO): 0.09117; Difference for 100 nM, NUDT19 (protein NUDT19 (A8MXV4), 100 nM, Log2 fold-change vs DMSO): 0.676; Difference for 50 nM, ZC3H12D (protein ZC3H12D (A2A288), 50 nM, Log2 fold-change vs DMSO): -0.03901; Difference for 100 nM, ZC3H12D (protein ZC3H12D (A2A288), 100 nM, Log2 fold-change vs DMSO): -0.07076; Difference for 50 nM, SNRPG;SNRPGP15 (proteins SNRPG;SNRPGP15, 50 nM, Log2 fold-change vs DMSO): -0.1263; Difference for 100 nM, SNRPG;SNRPGP15 (proteins SNRPG;SNRPGP15, 100 nM, Log2 fold-change vs DMSO): 0.0004592
